Marks after values point to notes of the source that are not given here.
Columns and labels:
[1] = cited from earlier work
[2] = test system: MDA-MB-231 breast cancer cells; test: Cell survival assay (crystal violet, 5 days); type: cell-based
Protocol: Breast cancer cell line MDA-MB-231 was generously donated by the Burrow Lab at Tulane University School of Medicine. Cells were maintained in 5% CO2 at 37° C. and cultured in Dulbecco's modified Eagle's medium (DMEM) supplemented with 10% Hyclone Cosmic Calf Serum (HyClone Laboratories, Utah), 50 ng/mL insulin (Sigma-Aldrich, St. Louis, Mo., USA), and 1% MEMAA, NEAA, sodium pyruvate, and antibiotic-antimycotic (Gibco, Dublin, Ireland).
MDA-MB-231 breast cancer cells were seeded at a density of 5000 cells per well in cell culture medium on 96-well Corning Costar tissue culture plastic plates (Corning Life Sciences, Corning, N.Y., USA). After 24 hours in culture, cells were treated with vehicle control (DMSO), PLGA NPs (negative control), AL-PLGA NPs (negative control), free GDC-0623 (positive control), PLGA-GDC NPs, or AL-PLGA-GDC NPs. […] Following treatment, cells were cultured for 5 days and then stained with crystal violet. Crystal violet was eluted with 33% acetic acid, and absorbance at 570 nm was measured with a BioTek Cytation 3 plate reader (BioTek Instruments Inc, Winooski, Vt., USA). The experiment was carried out with both internal replicates (n=3) and biological replicates (n=3).

For `O=C(NOCCO)c1ccc2cncn2c1Nc1ccc(I)cc1F` [GDC-0623], the pharmacokinetic characteristics ([1]; Phase I trials) is given as “dose-proportional and time-dependent”, the tolerability ([1]; Phase I trials) is given as “well-tolerated” and the accumulation at steady-state ([1]; daily oral dosing) is given as “no significant accumulation”. The “Mean Relative Cell Number (%)” value ([2]; 1 nM, relative to DMSO, n = 3) was 96.1%, the “Mean Relative Cell Number (%)” value ([2]; 10 nM GDC-0623 free or NP-entrapped, relative to DMSO (Table 6)) was 87.8* % and the “Mean Relative Cell Number (%)” value ([2]; 10 nM, relative to DMSO, n = 3) was 83.9%. For the same molecule, the “Mean Relative Cell Number (%)” value ([2]; 100 nM GDC-0623, normalized versus free drug (Table 7, first group)) was 100.0%, the “Mean Relative Cell Number (%)” value ([2]; 100 nM GDC-0623 free or NP-entrapped, relative to DMSO (Table 6)) was 51.4** % and the “reduction in cell numbers” value ([2]; 100 nM, compared to DMSO (vehicle)) was 50%. The “Mean Relative Cell Number (%)” value ([2]; 100 nM, relative to DMSO, n = 3) was 46.8* %, the “Mean Relative Cell Number (%)” value ([2]; 1 μM, relative to DMSO, n = 3) was 31.3** % and the “Mean Relative Cell Number (%)” value ([2]; 10 μM, relative to DMSO, n = 3) was 30.9** %. For the same molecule, the “Mean Relative Cell Number (%)” value ([2]; printed 100 nM GDC-0623, normalized versus free drug (Table 7, second group r12-r14)) was 100.0%.

Source: patent US20210322333A1, “Lignin-PLGA Biopolymers and Nanoparticles, and their Synthesis and Use” (Board of Supervisors of Louisiana State University and …, priority 2018, published 2021)
